Test results taken from US10646492B2, “Heterocyclylamines as PI3K inhibitors” (Incyte Corporation, priority 2011, dated 2020).

Molecular target: PI3Kδ (p110δ/p85α) (Homo sapiens (Human), UniProt O00329)
Assay: PI3Kδ scintillation proximity assay (Example A3)
Type: biochemical
Settings: 20 μM ATP, 4 nM PI3Kδ, read-out: PI3Kδ SPA IC50
Method: PI3Kδ (p110δ/p85α) was purchased from Millipore (Bedford, Mass.). ATP, MgCl2, DTT, EDTA, MOPS and CHAPS were purchased from SigmaAldrich (St. Louis, Mo.). Wheat Germ Agglutinin (WGA) YSi SPA Scintillation Beads was purchased from GE healthcare life sciences (Piscataway, N.J.). The kinase reaction was conducted in polystyrene 384-well matrix white plate from Thermo Fisher Scientific in a final volume of 25 μL. Inhibitors were first diluted serially in DMSO and added to the plate wells before the addition of other reaction components. The final concentration of DMSO in the assay was 0.5%. The PI3K assays were carried out at room temperature in 20 mM MOPS, pH 6.7, 10 mM MgCl2, 5 mM DTT and CHAPS 0.03%. Reactions were initiated by the addition of ATP, the final reaction mixture consisted of 20 μM PIP2, 20 μM ATP, 0.2 μCi [γ-^33P]ATP, 4 nM PI3Kδ. […] 25 mM EDTA, 400 μM ATP. The final concentration of SPA beads was 1.0 mg/mL. […] IC50 determination was performed by fitting the curve of percent control activity versus the log of the inhibitor concentration using the GraphPad Prism 3.0 software.

PI3Kδ (p110δ/p85α), sequence (O00329 whole entry): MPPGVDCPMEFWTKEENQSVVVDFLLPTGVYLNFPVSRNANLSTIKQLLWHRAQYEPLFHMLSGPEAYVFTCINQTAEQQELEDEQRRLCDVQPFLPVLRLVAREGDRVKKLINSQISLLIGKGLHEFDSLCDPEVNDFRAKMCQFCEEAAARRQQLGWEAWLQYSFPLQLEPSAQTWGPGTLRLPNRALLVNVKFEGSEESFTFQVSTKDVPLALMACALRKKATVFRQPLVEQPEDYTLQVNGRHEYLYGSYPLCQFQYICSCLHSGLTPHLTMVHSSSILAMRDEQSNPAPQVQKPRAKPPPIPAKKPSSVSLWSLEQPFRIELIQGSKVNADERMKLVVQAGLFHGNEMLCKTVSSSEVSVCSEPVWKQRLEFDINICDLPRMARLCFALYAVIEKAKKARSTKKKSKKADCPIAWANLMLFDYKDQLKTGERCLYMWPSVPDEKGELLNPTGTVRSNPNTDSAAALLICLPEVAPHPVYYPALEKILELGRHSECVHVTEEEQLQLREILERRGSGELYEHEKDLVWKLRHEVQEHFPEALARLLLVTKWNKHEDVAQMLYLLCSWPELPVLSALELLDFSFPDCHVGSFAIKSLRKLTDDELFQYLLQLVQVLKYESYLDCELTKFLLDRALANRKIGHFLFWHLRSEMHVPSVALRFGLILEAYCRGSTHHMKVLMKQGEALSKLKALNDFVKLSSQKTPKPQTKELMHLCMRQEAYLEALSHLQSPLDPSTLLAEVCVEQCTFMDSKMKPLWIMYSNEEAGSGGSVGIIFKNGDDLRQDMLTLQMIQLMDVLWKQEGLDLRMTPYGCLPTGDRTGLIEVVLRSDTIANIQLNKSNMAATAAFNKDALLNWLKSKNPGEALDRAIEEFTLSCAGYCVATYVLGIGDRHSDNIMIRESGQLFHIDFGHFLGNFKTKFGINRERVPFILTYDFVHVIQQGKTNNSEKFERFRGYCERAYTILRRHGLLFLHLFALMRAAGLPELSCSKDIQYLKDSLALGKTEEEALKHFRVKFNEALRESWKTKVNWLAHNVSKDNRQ
PI3Kδ (p110δ/p85α), sequence (P27986 whole entry partner): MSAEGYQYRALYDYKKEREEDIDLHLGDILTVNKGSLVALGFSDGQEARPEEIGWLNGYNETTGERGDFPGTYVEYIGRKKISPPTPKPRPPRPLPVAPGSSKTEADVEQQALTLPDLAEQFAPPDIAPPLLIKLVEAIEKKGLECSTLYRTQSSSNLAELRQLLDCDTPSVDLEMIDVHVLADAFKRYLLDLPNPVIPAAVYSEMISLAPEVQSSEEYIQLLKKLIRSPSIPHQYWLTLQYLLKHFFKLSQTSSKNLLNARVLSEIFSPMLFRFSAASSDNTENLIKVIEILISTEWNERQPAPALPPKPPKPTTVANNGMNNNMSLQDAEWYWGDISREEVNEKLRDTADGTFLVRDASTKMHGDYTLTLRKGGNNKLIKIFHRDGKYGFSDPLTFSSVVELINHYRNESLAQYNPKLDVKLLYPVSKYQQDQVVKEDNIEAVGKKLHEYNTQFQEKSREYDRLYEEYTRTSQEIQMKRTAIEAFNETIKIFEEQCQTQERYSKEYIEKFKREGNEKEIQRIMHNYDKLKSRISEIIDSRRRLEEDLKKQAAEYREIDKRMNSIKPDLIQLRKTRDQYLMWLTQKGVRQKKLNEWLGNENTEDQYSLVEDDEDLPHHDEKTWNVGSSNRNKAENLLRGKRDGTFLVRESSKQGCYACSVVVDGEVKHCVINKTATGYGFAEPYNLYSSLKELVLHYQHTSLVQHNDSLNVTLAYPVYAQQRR

`CCOc1c(C(C)n2nc(C)c3c(N)ncnc32)cc(Cl)c(C#N)c1-c1ccc(C(=O)NC)nc1` (stereo not shown) [Example 333, 5-{3-[1-(4-amino-3-methyl-1H-pyrazolo[3,4-d]pyrimidin-1-yl)ethyl]-5-chloro-6-cyano-2-ethoxyphenyl}-N-methylpyridine-2-carboxamide] gave an IC50 of under 0.01 µM.
